Experimental data from US10131652B2, “Pyrimidinyloxy benzene derivatives as herbicides” (E. I. DU PONT DE NEMOURS AND COMPANY, priority 2014, dated 2018).

Experiments:
Type in all cases: in vivo
[1] = system: blackgrass (Alopecurus myosuroides); experiment: Test B postemergence plant response
Procedure, shortened: (§1)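 Visual injury rating, 0–100 (0 = no effect, 100 = complete control), vs untreated controls ~10 days after postemergence spray; greenhouse; potted loam soil/sand; plants 2–10 cm, 1–2 leaf stage.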

[2] = system: galium (catchweed bedstraw, Galium aparine); experiment: Test B postemergence plant response
Procedure, shortened: as §1

[3] = system: chickweed (common chickweed, Stellaria media); experiment: Test D postemergence plant response; settings: for Chickweed plant response rating: scale 0 to 100 (0 no effect, 100 complete control); for Plant response rating, Chickweed: scale 0 to 100, 0 no effect, 100 complete control
From the text: (§2) At the same time, plants selected from these crop and weed species and also kochia (Kochia scoparia), wild oat (Avena fatua), and chickweed (common chickweed, Stellaria media) were planted in pots containing Redi-Earth® planting medium (Scotts Company, 14111 Scottslawn Road, Marysville, Ohio 43041) comprising spaghnum peat moss, vermiculite, wetting agent and starter nutrients and treated with postemergence applications of test chemicals formulated in the same manner. Plants ranged in height from 2 to 18 cm (1- to 4-leaf stage) for postemergence treatments. Treated plants and controls were maintained in a greenhouse for 13 to 15 days, after which time all species were compared to controls and visually evaluated. Plant response ratings, summarized in Table D, are based on a scale of 0 to 100 where 0 is no effect and 100 is complete control. A dash (-) response means no test result.

kochia (Kochia scoparia) = experiment: Test D postemergence plant response; settings: for Kochia plant response rating: scale 0 to 100 (0 no effect, 100 complete control); for Plant response rating, Kochia: scale 0 to 100, 0 no effect, 100 complete control
From the text: as §2

wild oat (Avena fatua) = experiment: Test D postemergence plant response; settings: for Oat, Wild plant response rating: scale 0 to 100 (0 no effect, 100 complete control); for Plant response rating, Oat, Wild: scale 0 to 100, 0 no effect, 100 complete control
From the text: as §2

[4] = 125 g ai/ha, postemergence, 0 to 100 scale, 0 no effect, 100 complete control
[5] = Postemergence, 500 g ai/ha, 0 to 100 scale (0 no effect, 100 complete control)
[6] = Postemergence, 1000 g ai/ha, 0 to 100 scale (0 no effect, 100 complete control)
[7] = 31 g ai/ha, Postemergence, 0 to 100 scale, 0 no effect, 100 complete control

| SMILES | Plant response rating, Blackgrass [1, 4] | Plant response rating, Blackgrass [1, 5] | Plant response rating, Galium [2, 4] | Plant response rating, Galium [2, 5] | Chickweed plant response rating ([3]; 16 g ai/ha) | Chickweed plant response rating ([3]; 31 g ai/ha) | Plant response rating, Chickweed ([3]; 62 g ai/ha) | Plant response rating, Chickweed ([3]; 125 g ai/ha) | Kochia plant response rating (kochia (Kochia scoparia); 16 g ai/ha) | Kochia plant response rating (kochia (Kochia scoparia); 31 g ai/ha) | Plant response rating, Kochia (kochia (Kochia scoparia); 62 g ai/ha) | Plant response rating, Kochia (kochia (Kochia scoparia); 125 g ai/ha) | Oat, Wild plant response rating (wild oat (Avena fatua); 16 g ai/ha) | Oat, Wild plant response rating (wild oat (Avena fatua); 31 g ai/ha) | Plant response rating, Oat, Wild (wild oat (Avena fatua); 62 g ai/ha) | Plant response rating, Oat, Wild (wild oat (Avena fatua); 125 g ai/ha) | Plant response rating, Blackgrass [1, 6] | Plant response rating, Galium [2, 6] | Plant response rating, Blackgrass [1, 7] | Plant response rating, Galium [2, 7] |
| --- | --- | --- | --- | --- | --- | --- | --- | --- | --- | --- | --- | --- | --- | --- | --- | --- | --- | --- | --- | --- |
| Cn1nnc(-c2ccccc2Oc2ncc(Br)cn2)n1 [Compound 50] | 40 | 60 | 90 | 100 | 0 | 0 | 5 | 5 | 0 | 0 | 5 | 15 | 0 | 0 | 0 | 0 |  |  |  |  |
| FC(F)(F)c1cc(-c2ccccc2Oc2ncc(Cl)cn2)ncn1 [Compound 54] | 70 | 80 | 100 | 100 | 5 | 5 | 5 | 5 | 50 | 55 | 80 | 80 | 0 | 0 | 5 | 5 |  |  |  |  |
| FCc1cc(-c2c(F)cccc2Oc2ncc(Cl)cn2)no1 [Compound 57] |  |  |  |  | 30 | 50 | 55 | 75 | 75 | 90 | 95 | 100 | 0 | 0 | 5 | 15 | 90 | 90 |  |  |
| Cc1cc(-c2ccccc2Oc2ncc(Cl)cn2)no1 [Compound 60] | 50 | 100 | 100 | 100 | 45 | 50 | 60 | 75 | 50 | 50 | 55 | 90 | 5 | 0 | 0 | 5 |  |  |  |  |
| Fc1ccc(Oc2ncc(Cl)cn2)c(-c2cc(C(F)F)on2)c1F [Compound 113] | 90 |  | 100 |  | 70 | 85 | 90 | 95 | 90 | 100 | 100 | 100 | 10 | 15 | 10 | 25 |  |  | 60 | 90 |
| FC(Cl)c1cc(-c2ccccc2Oc2ncc(Cl)cn2)no1 (stereo not drawn) [Compound 116] | 30 |  | 70 |  | 5 | 15 | 30 | 90 | 100 | 100 | 100 | 100 | 5 | 5 | 10 | 15 |  |  | 20 | 60 |
| Fc1cccc(Oc2ncc(Br)cn2)c1-c1cc(C(F)F)on1 [Compound 118] | 100 |  | 100 |  | 75 | 70 | 90 | 98 | 95 | 95 | 95 | 100 | 5 | 10 | 15 | 50 |  |  | 60 | 100 |
| FC(F)c1cc(-c2c(Cl)cccc2Oc2ncc(Cl)cn2)on1 [Compound 120] | 90 |  | 100 |  | 95 | 100 | 100 | 100 | 98 | 100 | 100 | 100 | 35 | 40 | 55 | 60 |  |  | 70 | 100 |
| FC(F)c1cc(-c2c(Cl)cccc2Oc2ncc(Br)cn2)on1 [Compound 121] | 80 |  | 100 |  | 95 | 100 | 100 | 100 |  | 100 | 100 | 100 |  | 45 | 70 | 70 |  |  | 50 | 100 |
| Fc1cccc(Oc2ncc(Cl)cn2)c1-c1cc(C2CC2)on1 [Compound 130] | 80 |  | 90 |  | 80 | 80 | 80 | 95 |  | 95 | 100 | 100 |  | 15 | 35 | 60 |  |  | 50 |  |
